Measurements from patent US5871779A, “Treatment of arthropathies with vanadate compounds or analogues thereof” (Mount Sinai Hospital Corporation, priority 1996, dated 1999).

How the values were obtained:
KB8, KB8-5 and KB85-11 = details: stated as background; cited from earlier work
chondrocytes = assay: TNFα and bFGF induced ROS production in chondrocytes (DHR fluorescence); type: cell-based; details: 4 hours in the presence of DHR
Method: With time, DHR by itself caused a shift in fluorescence to the right as shown in panels a to c. A dotted line was drawn through the mean fluorescence intensity of the control (panel c) with DHR alone for 4 hours. After incubation with TNFα or bFGF for 4 hours in the presence of DHR, there was a further shift in logarithmic fluorescence intensity as indicated in panel d or f. In panels e and g, DPI abolished the fluorescent shift stimulated by TNPα and bFGF respectively.

fos = fos / c-fos mRNA expression in chondrocytes (Northern blot); type: cell-based, bovine; details: stimulus alone; H2 O2 30, 60 and 90 minutes; IL-1, PMA or AA (3 μM) 1 hour
Method: (§1) The cytokine interleukin 1 (IL 1) has been used to identify the intermediate second messengers which regulate the expression of fos and jun.
In order to elucidate this possibility, the effect of DPI on fos and jun mRNA levels induced by IL 1 was investigated. RNA from chondrocytes treated with IL 1 in the presence and absence of DPI were analyzed by Northern blot analysis using either fos or collagenase cDNA probes.
Since superoxides are rapidly converted to hydrogen peroxide in the cell by superoxide dismutase, whether hydrogen peroxide could mimic the effect of IL 1 in the induction of fos expression was investigated. RNA was extracted from chondrocytes (Kandel et al. supra) treated with H2 O2 for 30, 60 and 90 minutes and examined by Northern blot analysis using a fos cDNA probe.
Bovine articular chondrocytes were isolated and plated as previously described (Kandel R. A. et al. Biochim. Biophys. Acta. 1053, 130-134, 1990). […] The amount of ^3 H-AA liberated into the supernatant was determined. To measure PGE2 production, chondrocytes were incubated for 6 hours in Ham's F12 medium, either alone or with IL 1 or PMA. […] In order to examine the expression of c-fos and c-jun, chondrocytes were incubated for 1 hour in the presence of IL-1, PMA or AA (3 μM). Chondrocytes were washed in PBS and the total RNA extracted as previously described (Cruz. et al, 1991, Biochem. J. 277, 327-330). RNA samples were run on formaldehyde agarose gels and transferred to nylon membrane for northern analysis using cDNA probes for c-fos and c-jun.
The RNA was extracted and examined by Northern blot analysis using cDNA probes for c-fos and collagenase.

jun = jun / c-jun mRNA expression in chondrocytes (Northern blot); type: cell-based, bovine; details: stimulus alone, 1 hour
Description: as §1
Although IL 1 stimulated superoxide production, it was not known whether IL 1 induced fos and jun expression was dependent on the production of superoxides. In order to elucidate this possibility, the effect of DPI on fos and jun mRNA levels induced by IL 1 was investigated. RNA from chondrocytes treated with IL 1 in the presence and absence of DPI were analyzed by Northern blot analysis using either fos or collagenase cDNA probes. […] Similar data has been obtained for IL 1 induced jun expression. Furthermore, inhibition of fos and jun expression by DPI was sufficient to suppress IL 1 induced and constitutive collagenase expression.
The effect of orthovanadate and N-acetylcysteine on fos, jun and collagenase expression were examined. Bovine articular chondrocytes were isolated and plated as previously described (Kandel R. A. et al. Biochim. Biophys. Acta. 1053, 130-134, 1990). In order to determine the effect of orthovanadate on IL 1 and PMA (phorbol ester) induced responses, chondrocytes were incubated with orthovanadate (100 μM) for 2 hours before stimulation with IL 1 (10 ng/ml) or PMA ([…]). Collagenase production was determined by incubating chondrocytes for 24 hours with IL 1 or PMA and the cell conditioned medium was assayed for collagenase activity using an ELISA procedure as described previously (Kandel et al. supra). PLA2 activity was measured by incorporating ^3 H-arachidonic acid (^3 H-AA) into the cells and then incubating the cells with medium containing 1 mg/ml BSA, either alone or in the presence of IL 1 or PMA, for 10 min. as previously described (Conquer, J. A. […], Biochim. Biophys. Acta. 1134, 1-6). The amount of ^3 H-AA liberated into the supernatant was determined. […] The supernatant was analyzed by RIA using an antibody specific for PGE2 (Dr. S. A. Jones, Mount Sinai Hospital, Toronto, Canada). […]

c-fos = assay: TNFα and bFGF induced c-fos mRNA in chondrocytes (Northern blot); type: cell-based, bovine; details: 100 μM, 2 hours preincubation
Method: Chondrocyte cultures were stimulated with H2 O2 (100 μM) at different time points as indicated. […] Chondrocyte cultures were preincubated with NAC (30 mM) or Asc (100 μM) for 2 hours before the addition of bFGF (10 ng/ml) or TNFα (30 ng/ml) for 30 minutes. Both human recombinant TNFα and bFGF were dissolved in phosphate buffered saline with 0.1% bovine serum albumin. NAC and Asc were first dissolved in Ham's F12 medium containing 5% (v/v) fetal bovine serum, then neutralized with sodium hydroxide. Total RNA from bovine articular chondrocytes was isolated and the c-fos mRNA levels were determined by Northern blot analysis as described herein. The blots were subsequently stripped of DNA and re-probed with ^32 p-labelled rat β tubulin cDNA.
Chondrocyte cultures were pretreated with DPI (2 μM) for 30 minutes before the addition of TNFα (30 ng/ml) or bFGF (10 ng/ml) for 30 minutes. Measurements of c-fos and tubulin mRNA levels were as described in Example 11.

carcinogenesis = details: G. Shklar et al.; cited from earlier work
collagenase = collagenase production by chondrocytes (ELISA); type: cell-based, bovine; details: stimulus alone, 24 hours
Method: The effect of orthovanadate and N-acetylcysteine on fos, jun and collagenase expression were examined. Bovine articular chondrocytes were isolated and plated as previously described (Kandel R. A. et al. Biochim. Biophys. Acta. 1053, 130-134, 1990). In order to determine the effect of orthovanadate on IL 1 and PMA (phorbol ester) induced responses, chondrocytes were incubated with orthovanadate (100 μM) for 2 hours before stimulation with IL 1 (10 ng/ml) or PMA ([…]). Collagenase production was determined by incubating chondrocytes for 24 hours with IL 1 or PMA and the cell conditioned medium was assayed for collagenase activity using an ELISA procedure as described previously (Kandel et al. supra). PLA2 activity was measured by incorporating ^3 H-arachidonic acid (^3 H-AA) into the cells and then incubating the cells with medium containing 1 mg/ml BSA, either alone or in the presence of IL 1 or PMA, for 10 min. as previously described (Conquer, J. A. […], Biochim. Biophys. Acta. 1134, 1-6). The amount of ^3 H-AA liberated into the supernatant was determined. To measure PGE2 production, chondrocytes were incubated for 6 hours in Ham's F12 medium, either alone or with IL 1 or PMA. The supernatant was analyzed by RIA using an antibody specific for PGE2 (Dr. S. A. Jones, Mount Sinai Hospital, Toronto, Canada). In order to examine the expression of c-fos and c-jun, chondrocytes were incubated for 1 hour in the presence of IL-1, PMA or AA (3 μM). Chondrocytes were washed in PBS and the total RNA extracted as previously described (Cruz. et al, 1991, Biochem. J. 277, 327-330). RNA samples were run on formaldehyde agarose gels and transferred to nylon membrane for northern analysis using cDNA probes for c-fos and c-jun.

PLA2 = assay: release of 3H-arachidonic acid from chondrocytes (PLA2 activity); type: cell-based, bovine; details: stimulus alone, 10 min
Method: (§2) The effect of orthovanadate and N-acetylcysteine on fos, jun and collagenase expression were examined. Bovine articular chondrocytes were isolated and plated as previously described (Kandel R. A. et al. Biochim. Biophys. Acta. 1053, 130-134, 1990). In order to determine the effect of orthovanadate on IL 1 and PMA (phorbol ester) induced responses, chondrocytes were incubated with orthovanadate (100 μM) for 2 hours before stimulation with IL 1 (10 ng/ml) or PMA ([…]). Collagenase production was determined by incubating chondrocytes for 24 hours with IL 1 or PMA and the cell conditioned medium was assayed for collagenase activity using an ELISA procedure as described previously (Kandel et al. supra). PLA2 activity was measured by incorporating ^3 H-arachidonic acid (^3 H-AA) into the cells and then incubating the cells with medium containing 1 mg/ml BSA, either alone or in the presence of IL 1 or PMA, for 10 min. as previously described (Conquer, J. A. […], Biochim. Biophys. Acta. 1134, 1-6). The amount of ^3 H-AA liberated into the supernatant was determined. To measure PGE2 production, chondrocytes were incubated for 6 hours in Ham's F12 medium, either alone or with IL 1 or PMA. The supernatant was analyzed by RIA using an antibody specific for PGE2 (Dr. S. A. Jones, Mount Sinai Hospital, Toronto, Canada). […]

PGE2 = PGE2 production by chondrocytes (RIA); type: cell-based, bovine; details: stimulus alone, 6 hours
Method: as §2

P388 (WT) = assay: MTT cytotoxicity assay, P388 (WT); type: cell-based, murine; details: Mus musculus, P388, 72 h, read-out: IC50 Value
Method: (§3) The relative cytotoxicity of various compounds on tumor cell lines was investigated as follows. Cytotoxicity was measured by the MTT microculture tetrazolium colorimetric assay for all cell lines. The relative cytotoxicity of Na3 VO4 and VOSO4 was investigated using the following tumor cell lines: P388(WT) murine leukemia, P388 (ADR) murine leukemia, Lewis murine lung, MCF7 (WT) human breast, […] human lung, K562 human erythroleukemia, A431 human epidermal, LS180 human colon and SK-OV-3 human ovarian. The relative cytotoxicity of doxorubicin, Na3 VO4 and VOSO4 was investigated using the following tumor cell lines: P388(WT) murine leukemia, P388 (ADR) murine leukemia, MCF7(WT) human breast and MCF7 (ADR) human breast. The relative cytotoxicity of BMOV, BEOV and naglivan was investigated using the following tumor cell lines: P388(WT) murine leukemia, P388 (ADR) murine leukemia, Lewis murine lung, H460 human lung, K562 human erythroleukemia, and SK-OV-3 human ovarian.
(§4) The cells were plated (number of cells/well was different from cell line to cell depending on the dividing rate) in a 96-well microculture plate 24 hours prior to the delivery of the vanadium compounds. Serial concentrations of solutions of the test compounds (0.05-100 μM) were delivered to the corresponding wells. A blank column (without cells) and a control column (with cells without vanadium) were left. The cells were incubated for 72 hours continuously. An MTT solution was added to each well after this incubation period and the cells were incubated for 4 more hours for the completion of the dyeing process. The medium was removed find DMSO was added to each well. The absorbance of each well was read with a Titertek Multiskan (310C) spectrophotometer at 570 nm. The percentage of the absorbance of each vanadium concentration relative to the control calculated and the value of the 50% growth inhibition concentration (IC50) was obtained from the % control versus concentration plot. Each assay was repeated three times and the reported IC50 values were the mean of these three runs.

P388 (ADR) = assay: MTT cytotoxicity assay, P388 (ADR); type: cell-based, murine; details: Mus musculus, P388/ADR, 72 h, read-out: IC50 Value
Method: as §3, §4

MCF7 (WT) = assay: MTT cytotoxicity assay, MCF7 (WT); type: cell-based, human; details: Homo sapiens, MCF7, 72 h, read-out: IC50 Value
Method: as §3, §4

MCF7 (ADR) = assay: MTT cytotoxicity assay, MCF7 (ADR); type: cell-based, human; details: Homo sapiens, NCI/ADR-RES, 72 h, read-out: IC50 Value
Method: as §3, §4

For `COc1cc2c(c(OC)c1OC)-c1ccc(OC)c(=O)cc1[C@@H](NC(C)=O)CC2` [colchicine], the “killing of drug resistant cell lines by conventional chemotherapeutic agents” value (from here on “killing of drug resistant cell lines”) (KB8, KB8-5 and KB85-11) is given as “not killed”.

For `CC[C@]1(O)C[C@@H]2CN(CCc3c([nH]c4ccccc34)[C@@](C(=O)OC)(c3cc4c(cc3OC)N(C)[C@H]3[C@@](O)(C(=O)OC)[C@H](OC(C)=O)[C@]5(CC)C=CCN6CC[C@]43[C@@H]65)C2)C1` [vinblastine], the “killing of drug resistant cell lines” value (KB8, KB8-5 and KB85-11) is listed as “not killed”.

With bFGF: human recombinant bFGF the “shift in logarithmic fluorescence intensity (ROS production)” value (chondrocytes) was “further shift”.

For `CCCCC/C=C\C/C=C\C/C=C\C/C=C\CCCC(=O)O` [AA, arachidonic acid], the “stimulation of fos / c-fos expression” value (fos) was “stimulated” and the “stimulation of c-jun expression” value (jun) was “stimulated”.

For `O=C1O[C@H]([C@@H](O)CO)C(O)=C1O` [Asc, ascorbic acid], the “inhibition of TNFα and bFGF induced c-fos mRNA levels” value (c-fos) is listed as “inhibit” and the anticancer activity (carcinogenesis) is listed as “anticancer activity”.

For `CCCCCCCCCCCCCC(=O)O[C@@H]1[C@@H](C)[C@@]2(O)[C@@H](C=C(CO)C[C@]3(O)C(=O)C(C)=C[C@@H]23)[C@@H]2C(C)(C)[C@]12OC(C)=O` [PMA, reference compound], the “stimulation of fos / c-fos expression” value (fos) was “stimulated”, the “stimulation of c-jun expression” value (jun) was “stimulated” and the “induction of collagenase production” value (collagenase) was “induced”. The “induction of 3H-AA release” value (PLA2) was “induced” and the “induction of PGE2 production” value (PGE2) was “induced”.

In the case of TNFα, the “shift in logarithmic fluorescence intensity (ROS production)” value (chondrocytes) is reported as “further shift”.

With `COc1cccc2c1C(=O)c1c(O)c3c(c(O)c1C2=O)C[C@@](O)(C(=O)CO)C[C@@H]3O[C@H]1C[C@H](N)[C@H](O)[C@H](C)O1` [doxorubicin, reference compound] the IC50 (P388 (WT)) was 23 nM, the IC50 (P388 (ADR)) was 3770 nM and the IC50 (MCF7 (WT)) was 492 nM. The IC50 (MCF7 (ADR)) was 25700 nM and the “killing of drug resistant cell lines” value (KB8, KB8-5 and KB85-11) was “not killed”.
